Measured values: ChEMBL document CHEMBL5344464, “Forgotten Natural Products: Semisynthetic Development of Blasticidin S As an Antibiotic Lead” (ACS Med Chem Lett, 2024)
Converted amounts (≈) assume the structure as drawn.

What was measured:
Enterococcus faecalis = experiment: Antibacterial activity against Enterococcus faecalis ATCC 29212 assessed as minimum inhibitory concentration incubated for 24 hrs by broth microdilution method; assay type: functional
Klebsiella pneumoniae = experiment: Antibacterial activity against Klebsiella pneumoniae ATCC 29665 assessed as minimum inhibitory concentration incubated for 16 to 18 hrs by broth microdilution method; assay type: functional; settings: time 16-18 hrs

Compound `CNC(=O)[C@H]1O[C@@H](n2ccc(N)nc2=O)C=C[C@@H]1NC(=O)C[C@@H](N)CCN(C)C(=N)N` has an MIC90 (Enterococcus faecalis) of 16 µg/mL (≈ 36.7 µM).
`CN(C)C(=O)[C@H]1O[C@@H](n2ccc(N)nc2=O)C=C[C@@H]1NC(=O)C[C@@H](N)CCN(C)C(=N)N` showed an MIC90 (Enterococcus faecalis) of 16 µg/mL (≈ 35.6 µM).
For `CN(CC[C@H](N)CC(=O)N[C@H]1C=C[C@H](n2ccc(N)nc2=O)O[C@@H]1C(=O)O)C(=N)N` [BLASTICIDIN_S], the MIC90 (Enterococcus faecalis) was 32 µg/mL (≈ 75.7 µM).
With `CCCNC(=O)[C@H]1O[C@@H](n2ccc(N)nc2=O)C=C[C@@H]1NC(=O)C[C@@H](N)CCN(C)C(=N)N` the MIC90 (Klebsiella pneumoniae) was 128 µg/mL (≈ 276 µM).
